Measurements from patent US7935847B2, “Nitroxyl ion source with second order reaction nitroxyl release” (Duke University, priority 2007, dated 2011).
Entries after “also recorded” stand apart in the source; their conditions may differ.

Key:
[1] = Isolability / rate of nitroxyl release on attempted synthesis; assay type: physicochemical; details: electron withdrawing group p-nitrophenyl; nitrosation of 4g with NaNO2 in glacial acetic acid
Description: It has been found herein that the rate of release is so fast, when the electron withdrawing group on the carbon acid is p-nitrophenyl, e.g., when the compound is (I) below.
The same would be true where the electron withdrawing group is nitro. Thus the compound of the invention excludes the cases where the electron withdrawing group is nitro or p-nitrophenyl.
A freshly prepared solution of aqueous 10M NaNO2 (0.59 ml, 5.9 mmol) is added dropwise with stirring to a cooled (ice/H2O bath) solution of (1.22 g, 4.9 mmol) 4g in glacial acetic acid (1.5 ml). Stirring is continued for 1 hour. The reaction mixture is diluted with the water (5 mL) and precipitates are filtered off at vacuum. The filter cake is washed with water (20 ml), hexane (20 ml) and dried under vacuum to give

[2] = test system: congestive heart failure and a dilated cardiomyopathy; experiment: Treatment of heart failure (Working Example IV); assay type: in vivo, human; details: person with congestive heart failure and dilated cardiomyopathy; intravenously, blood concentration of 10 nanomolar
Description: A person with congestive heart failure and a dilated cardiomyopathy is administered compound (II) intravenously (to obtain a blood concentration of 10 nanomolar). Their ejection fraction improves, their blood pressure decreases, and […] pO2 improves on room air. Symptoms of angina also decrease.

[3] = test system: ischemic reperfusion injury; experiment: Prevention of ischemic reperfusion injury (Working Example V); assay type: in vivo, human; details: person, heart attack, bypass surgery; intravenously, blood concentration of 10 nanomolar from 15 minutes before reperfusion up to 20 minutes thereafter
Description: A person presents with a heart attack. Blockage is treated with bypass surgery. The patient is give compound (II) intravenously to maintain a blood concentration of 10 nanomolar 15 minutes before reperfusion up to 20 minutes thereafter.

For `CC(=O)C(Cc1ccc([N+](=O)[O-])cc1)(N=O)C(C)=O` [Compound (I)], the “stability / isolability (rate of nitroxyl release)” value [1] was “cannot be isolated; also recorded: couldn't be isolated”.
With `CC(=O)C(Cc1ccc(Br)cc1)(N=O)C(C)=O` [Compound (II), 3-(4-bromobenzyl)-3-nitroso-2,4-pentanedione] the blood pressure [2] was “decreases”, the ejection fraction [2] was “improves” and the “pO2 on room air” value [2] was “improves”. The symptoms of angina [2] was “decrease” and the ischemic reperfusion injury [3] was “does not occur”.
